Laboratory results published in article PMC10660337, “Mutate and Conjugate: A Method to Enable Rapid In-Cell Target Validation” (ACS Chemical Biology, 2023).
Values joined by “and” are separate entries in the source; they are usually repeats but may differ in a detail not shown here. Equal entries are not always repeated. Where two headings read alike, the source gives them in different places.

Key:
Type in all cases: binding
BRD4(1)^WT [1] = target: T1, BRD4(1)^WT (Homo sapiens, UniProt O60885); assay: Protein LCMS labeling assay 1; conditions: for Covalent labeling of purified BRD4(1)^WT detected using LCMS: after 20 h incubation; for Labeled Protein (%) WT 4 h: 50 μM compound, 10 µM protein, 37 °C, mean of three ± s.e.m., ND = not detectable
T1 construct: Characterization of His6-BRD4(1)WT; made in house; host or cells: E. coli BL21 (DE3)
Experimental: Before introducing a Cys mutant into the first bromodomain of BRD4 [BRD4(1)], we wanted to rule out the possibility that the native Cys residues C125 and C136 (Figures 2A and S1), would react with electrophilic fragments. To test this, we incubated two KAc-mimicking methylisoxazole-based reactive fragments (1 and 2, Figure 2C) with purified BRD4(1)^WT.
(§1) The resulting library of 22 fragments was screened for BRD4(1)^L94C binding at a concentration of 50 μM using a protein LCMS assay (referred to as “labeling assay 1”). […] To assess the selectivity of the fragments for the labeling of C94, hits were also screened against BRD4(1)^WT under the same conditions. […] The acrylamide-based fragment, 12, labeled 98% of BRD4(1)^L94C after 4 h. While 95% of the protein was labeled once, 3% of the protein was labeled twice (Figure 5D). […] Fragment 14, designed by appending a β-dimethylaminomethyl acrylamide to the structure of 12, led to 74% of singly labeled BRD4(1)^L94C after 4 h with no labeling of BRD4(1)^WT observed (Table 1 and Figure 5E). […] However, only 9.9% of labeled BRD4(1)^L94C was observed, substantially lower than the 56% labeling observed for the corresponding 3-methyl regioisomer 10 (Table 1). […]
(§2) Assays were performed in 1.5 mL Eppendorf tubes at 37 °C and gently shaken, unless otherwise stated.
(§3) Experiments were performed in a protein LCMS assay buffer, with 10 µM protein, and 50 µM of the desired compound with a final DMSO concentration of 0.5% (Table S16). Time points were taken at 0, 1 and 4 h, unless otherwise stated, where a 20 µL sample of the reaction mix was taken, diluted with 100 µL Milli-Q water, and flash frozen. Samples were thawed immediately prior to LCMS analysis on a Waters Xevo G2-S system (Waters) fitted with a ProSwift™ RP-2H PSDVB Reversed Phase HPLC Column (Thermofisher). Data was analysed and processed using MassLynx. The total ion chromatograms (TIC) were extracted (region containing protein) and the summed scans were deconvoluted (using MaxEnt). Covalent labeling was calculated using intensities of the unlabeled and labeled protein (Equation 1). Figures were made using GraphPad Prism 7.0.
(§4) Table S16. Buffer composition for protein LCMS.
(§5) Buffer Reagent Composition Amount per 1 L
(§6) Protein LCMS Assay Buffer HEPES 25 mM 6.0 g
(§7) Protein Labelling = Intensity of Labelled Peak × 100

BRD4(1)^L94C [2] = target: T2, BRD4(1)^L94C (Homo sapiens, UniProt O60885, L94C); assay: Protein LCMS labeling assay 1; conditions: for Labeled Protein (%) L94C 1 h / Labeled Protein (%) L94C 4 h: 50 μM compound, 10 µM protein, 37 °C, mean of three ± s.e.m., ND = not detectable
T2 construct: Characterization of His6-BRD4(1)L94C; made in house; host or cells: E. coli BL21 (DE3)
Experimental: as §1, §2, §3, §4, §5, §6, §7

BRD4(1)^L94C [3] = target: T2, BRD4(1)^L94C; assay: AlphaScreen H4_1–20(KAc)4 peptide displacement
Experimental: Under these conditions, all three fragments displaced the peptide from BRD4(1)^L94C, which is consistent with the fragments binding to BRD4(1)^L94C in the expected location (Table 2). […] The longer the mutant protein and electrophile are incubated together, the more time there is for a covalent interaction to occur. […]
(§8) Dose response AlphaScreen™
(§9) The peptide (Table S17) was supplied at >95% purity by GenScript and was stored as 1 mM stocks in […]
(§10) Table S17. Amino acid sequences of peptides used in AlphaScreen™.
(§11) Peptide Amino Acid Sequence […]
(§12) The assay buffer (Table S18, pH 7.6) was filtered through a 0.22 μm filter before use. The buffer is stored at 4 °C as a 5× solution without bovine serum albumin (BSA), which was added on the day of use. The compounds, proteins, and peptides were dispensed into a ProxiPlate-384 Plus (Perkin Elmer) using a Thermo-Fisher electronic multi-channel pipette. For the incubation steps, the plates were sealed, shaken for 10 seconds at 600 rpm on a plate oscillator, and incubated at room temperature in darkness for 30 min or 3.5 h. Ni2+ chelate acceptor and streptavidin donor beads were prepared as a mixture in a 1:300 dilution (0.007 mg/mL final assay concentration, added to the plates and incubated for a further 30 min at room temperature. Plates were read using a SynergyTM 2 MultiMode Microplate Reader using the inbuilt AlphaScreen™ 384 ProxiPlate function: excitation 680 nm, 0.18 sec; emission […]
(§13) Table S18. Composition of assay buffer used in AlphaScreen™ experiments, adjusted to pH 7.6 using an aqueous NaOH […]
(§14) Reagent Composition Mass (mg) for 50 mL
(§15) 50 mM DMSO stock solutions of the compounds were serially diluted, and dispensed into wells (5 μL).
(§16) The protein-peptide mixes (7 μL) for each combination were prepared following the specified final assay concentration (Table S19), and dispensed into wells. Assay beads (8 μL) were added to attain a final assay volume of 20 μL. Dose response curves were obtained for each compound in triplicate, with serial 1:2 dilutions. Data was processed by fitting a four-parameter equation (Equation 2) to calculate IC50 values using Prism software.
(§17) Table S19. Final assay concentrations of each peptide-protein combination.
(§18) Protein Peptide Protein FAC (nM) Peptide FAC (nM)
(§19) Response = Bottom + Top − Bottom

BRD4(1)^WT [4] = target: T1, BRD4(1)^WT; assay: AlphaScreen H4_1–20(KAc)4 peptide displacement
Experimental: as §8, §9, §10, §11, §12, §13, §14, §15, §16, §17, §18, §19

BRD4(1)^L94C [5] = target: T2, BRD4(1)^L94C; assay: Fluorescent labeling of purified protein (CuAAC with TAMRA-PEG3-azide, in-gel fluorescence); conditions: 50 μM probe, 10 μM protein, 4 h, 37 °C, then CuAAC 1 h
Experimental: When 28, 29, 30, and 42 were incubated with either purified BRD4(1)^L94C or BRD4(1)^WT and subjected to a copper(I)-catalyzed alkyne–azide click reaction (CuAAC) reaction with the fluorescent TAMRA-PEG3-azide dye, all clickable probes labeled the mutant protein and could be visualized using fluorescence imaging of a gel (Figure 6).
Figure 6 Clickable probes 28, 29, 30, and 42 covalently label BRD4(1)^L94C and undergo a subsequent CuAAC reaction with TAMRA-PEG3 azide to fluorescently label the protein, as shown by in-gel fluorescence imaging. Compounds 28, 29, 30, 41, and 42 (50 μM) were incubated with purified BRD4(1)^L94C or BRD4(1)^WT (10 μM) for 4 h at 37 °C, followed by CuAAC reaction with TAMRA-PEG3 azide for 1 h and separation of components by SDS-PAGE. For all compounds other than 30, only labeling of BRD4(1)^L94C was observed. […]
Fluorescent labeling of purified proteins
Assays were performed in 1.5 mL Eppendorf tubes at 37 °C, and gently shaken, unless otherwise stated.
The desired click probe (50 µM) was incubated with protein (10 µM) in protein LCMS buffer for 4 h, after which TAMRA-PEG3-Azide (200 µM), TCEP·HCl (1 mM), TBTA (100 µM), and CuSO4 (1 mM) were added and incubated for a further 1 h at room temperature in the dark. A 25 µL sample of the […]
reaction mix was taken and 8 µL of Lamelli buffer added, and the samples denatured by heating at 95 °C for 10 min. Samples were separated by gel electrophoresis on NuPAGE™ 4–12%, Bis-Tris precast polyacrylamide gels (Thermofisher). Following electrophoresis, gels were stained for 15 min with InstantBlueTM Coomasie® stain (Abcam), destained, and imaged using Bio-rad molecular imager.
Bio-rad Image Lab 6.1 was used to process the data. […]
InstantBlueTM Coomasie® stain (Abcam), destained, and imaged using Bio-rad molecular imager. […]
MEM media. Cells were then harvested and lysed using the previously described protocol above. […]

[6] = IC50 (μM) L94C 1 h, 1 h incubation at RT, mean of three ± s.e.m.
[7] = IC50 (μM) L94C 4 h, 4 h incubation at RT, mean of three ± s.e.m.
[8] = 4 h incubation at RT, mean of three ± s.e.m.

Labeled Protein (%) WT 4 h (BRD4(1)^WT [1]) | Labeled Protein (%) L94C 1 h (BRD4(1)^L94C [2]) [%] | Labeled Protein (%) L94C 4 h (BRD4(1)^L94C [2]; 4 h) | SMILES | other results
 |  |  | Cc1cc(CCl)on1 [Compound 1] | Covalent labeling of purified BRD4(1)^WT detected using LCMS (BRD4(1)^WT [1]): no covalent labeling
 |  |  | Cc1cc(CCl)no1 [Compound 2] | Covalent labeling of purified BRD4(1)^WT detected using LCMS (BRD4(1)^WT [1]): no covalent labeling
83 ± 1.2% | 100 ± 0.0 | 100 ± 0.0% | C=CC(=O)c1cc(C)no1 [Compound 4] | 
86 ± 7.4% | 100.0 ± 0.0 | 100.0 ± 0.0% | C=CC(=O)c1cc(C)on1 [Compound 5] | 
 | 100 ± 0.0 | 100 ± 0.0% | C=CC(=O)c1onc(C)c1-c1ccccc1 [Compound 6] | 
29 ± 0.8% | 44 ± 0.6 | 42 ± 1.4% | C#CC(=O)c1cc(C)no1 [Compound 8] | 
22 ± 1.4% | 60 ± 0.7 | 58 ± 1.9% | C#CC(=O)c1cc(C)on1 [Compound 9] | 
 | 21 ± 1.8 | 56% and 56 ± 0.9% | C=CC(=O)Nc1cc(C)no1 [Compound 10] | 
 | 7.6 ± 0.4 | 9.9% and 9.9 ± 0.4% | C=CC(=O)Nc1cc(C)on1 [Compound 11] | 
3% and 3.0 ± 0.2% | 70 ± 0.6 | 98% and 98 ± 0.2% | C=CC(=O)Nc1onc(C)c1-c1ccccc1 [Compound 12] | IC50 (BRD4(1)^L94C [3]; [6]): 5.83 µM and 5.8 µM; IC50 (BRD4(1)^L94C [3]; [7]): 1.27 µM and 1.3 µM; IC50 (BRD4(1)^WT [4]; [8]): > 100 µM; BRD4(1)^L94C protein labeled once (BRD4(1)^L94C [2]; 50 μM, 4 h): 95%; BRD4(1)^L94C protein labeled twice (BRD4(1)^L94C [2]; 50 μM, 4 h): 3%
 | 16 ± 0.7 | 52% and 52 ± 0.9% | Cc1cc(NC(=O)/C=C/CN(C)C)on1 [Compound 13] | 
no labeling | 27 ± 2.2 | 74% and 74 ± 2.6% | Cc1noc(NC(=O)/C=C/CN(C)C)c1-c1ccccc1 [Compound 14] | IC50 (BRD4(1)^L94C [3]; [6]): 8.69 µM and 8.7 µM; IC50 (BRD4(1)^L94C [3]; [7]): 4.45 µM and 4.4 µM; IC50 (BRD4(1)^WT [4]; [8]): > 100 µM
 | 3.4 ± 0.2 | 15 ± 1.3% | C#CC(=O)Nc1cc(C)no1 [Compound 19] | 
 |  | 7.8 ± 0.2% | CC#CC(=O)Nc1cc(C)no1 [Compound 20] | 
 | 10 ± 0.7 | 32 ± 0.9% | Cc1cc(NC(=O)CCl)on1 [Compound 21] | 
 | 5.9 ± 0.3 | 22 ± 0.4% | Cc1noc(NC(=O)CCl)c1-c1ccccc1 [Compound 22] | 
 | 59 ± 1.9 |  | C#Cc1ccc(-c2c(C)noc2NC(=O)/C=C/CN(C)C)cc1 [Compound 28] | Labeling of purified BRD4(1)^L94C, in-gel fluorescence (BRD4(1)^L94C [5]): high levels
 | 49 ± 2.0 |  | C#CCOc1ccc(-c2c(C)noc2NC(=O)/C=C/CN(C)C)cc1 [Compound 29] | Labeling of purified BRD4(1)^L94C, in-gel fluorescence (BRD4(1)^L94C [5]): high levels
 |  |  | Cc1noc(C)c1-c1cc(O)cc(C(O)c2cccnc2)c1 (centres unmarked) [OXFBD04 (3), reference compound] | IC50 (BRD4(1)^L94C [3]; IC50, prevention of H4_1–20(KAc)4 peptide binding to BRD4(1)^L94C, equals the 4 h value of Figure S13): 0.08 ± 0.009 µM; IC50 (BRD4(1)^L94C [3]; read-out: IC50 (μM) L94C 1 h, 1 h incubation at RT, mean of three ± s.e.m.): 0.059 ± 0.11 µM; IC50 (BRD4(1)^WT [4]; equals the 4 h value of Figure S14): 0.183 ± 0.025 µM
